In article PMC8708875 (Pharmaceutics, 2021):
Where two headings read alike, the source gives them in different places.

Test system: Glut4
Experiment: GLUT4 translocation assay (subcellular fractions, Western blot)
Assay type: cell-based, mouse
Experimental: C2C12 differentiated myotubes were starved with free-FBS low glucose DMEM for 3 h, and then treated with saline or 5 µM of BMS-536924 insulin receptor inhibitor (Sigma-Aldrich, Sao Paulo, Brazil) for 30 min. Next, C2C12 were incubated in the presence of either vehicle, insulin (100 nM) or Ric4 (100 µM) for 30 min. As described by Tortorella and Pilch, 2002, cells were washed three times with PBS, and homogenized with 40 strokes of a glass tissue grinder in buffer containing sucrose 255 mM, disodium 4 mM, EDTA 20 mM, 4-(2-hydroxyethyl)-1-piperazineethanesulfonic acid (HEPES) 10 mM, pH 7.4, leupeptin 10 µM, pepstatin 1µM, aprotinin 1 µM, phenylmethylsulfonyl fluoride (PMSF) 1 mM, and benzamidine 5 mM (HES buffer). The homogenate was centrifuged at 19,000× g for 20 min. The pellet was saved (P1). The supernatant was recovered and centrifuged at 40,000× g for 20 min. The pellet (MF1) was resuspended in HES buffer. The supernatant was further centrifuged at 180,000× g for 1.5 h and the pellet (MF2) was resuspended in HES buffer. Both pellets MF1 and MF2, referred to as microsomal fraction (MF) correspond to high- and low-density microsomes. The pellet from the first centrifugation (P1) was resuspended in HES buffer, layered onto a 1.12 M sucrose cushion in 20 mM HEPES and 1 mM disodium EDTA, and centrifuged at 100,000× g for 1 h. The pellet (nuclear/endoplasmic reticulum fraction -N/ER) was resuspended in a buffer containing 20 mM Tris (pH 7.4), 50 mM NaCl, 2% Nonidet P-40, 0.5% deoxycholate, 0.2% SDS, and the protease inhibitor cocktail (#P8340; Sigma Aldrich, SP, Brazil). The interphase of the sucrose cushion was collected and pelleted at 40,000× g for 20 min. This PM-containing pellet (PM) was resuspended in PBS plus protease inhibitors. All centrifugations were performed at 4 °C with a Beckman Coulter Ultracentrifuge. Total protein of all samples was determined using Pierce™ BCA Protein Assay Kit (ThermoFisher, Sao Paulo, Brazil). Proteins were submitted to Western blot analysis as described above, using as primary antibody anti-Glut4 (1:1000, Cell Signaling, Boston, MA, USA).
Figure 4 Glucose uptake and GLUT4 translocation induced by Ric4 in C2C12 cells. C2C12 cells were previously incubated in serum-free and glucose-free DMEM medium, then incubated with HEPES buffer for 30 min and then incubated for a further 30 min in glucose-uptake buffer containing vehicle, Ric4 (100 µM), or insulin (100 nM) in the presence of ^3H-glucose (1 µCi/mL) or 2-NBDG (80 µM). After incubations cells were lysed with 50 μL of 0.1 N NaOH and fluorescence or radiation of aliquots from the lysate were measured (A). Epididymal adipose tissue explants (20–25 mg) were incubated in Krebs–Ringer bicarbonate buffer containing glucose 5.5 mM and 1 μCi/mL of ^3H-deoxyglucose supplemented with 2% fatty acid-free for 30 min at 37 °C in the presence or absence of insulin (100 nM) or Ric4 (100 µM). The explants were processed to evaluate the uptake of ^3H-deoxyglucose (B). Myotubes were previously incubated in serum-free and glucose-free DMEM medium and then treated with control vehicle PBS or Ric4 (100 µM) for 30 min. Proteins from subcellular fractions: N/ER (C), microsomal (D), plasma membrane (E), were isolated and the expression Glut4 was analyzed by Western blot. Images were quantified using ImageJ 1.49 software. The statistical comparisons were performed using analysis of variance (ANOVA), followed by ad-hoc Tukey’s test using GraphPad Prism software * p < 0.05; # p < 0.05; **** p < 0.0001.

[1] = C2C12 myotubes, Ric4 100 µM, insulin 100 nM, 30 min, Western blot

| Substance | Glut4 presence in microsomal membranes | translocation of Glut4 to plasma membrane [1] | translocation of Glut4 to rough endoplasmic reticulum (RER) membranes (N/ER fraction) [1] | Glut4 presence in microsomal membranes [1] |
| --- | --- | --- | --- | --- |
| LASVSTVLTSKYR [Ric4, intracellular peptide derived from hemoglobin alpha subunit, last 13 C-terminal amino acids] | decreasing | induced translocation of Glut4 to plasma membrane | increased | – |
| Insulin | – | induced translocation of Glut4 to plasma membrane | not observed | not observed |
